From patent US4670456A, “4-Aminocarbonylaminomethyl-1-benzylpyrrolidin-2-ones as nootropic agents and as agents for treating cerebral insufficiency” (Boehringer Ingelheim KG, priority 1984, dated 1987)
Like-named read-outs stand apart in the source and are kept apart here. Blank lines part the entries; values can stand above or below the compound they belong to.

What was measured:
[1] = tested on: mice; assay: Reversal of Scopolamine-Induced Transient Disruption of the Memory of a Passive Avoidance Procedure; assay type: in vivo; conditions: scopolamine 0.6 mg/kg i.p.
Experimental: 1. […] The animals used were mice, to which scopolamine was administered at a dosage of 0.6 mg/kg, i.p.

[2] = target: Muscarine-Cholinergic Receptor (Hippocampus); assay: Muscarine-Cholinergic Receptor Binding, hippocampus; parameters: species or system rat
Experimental: The IC50 values were calculated in the manner described by Y. C.

[3] = tested on: mice; assay: Hypoxia Tolerance Test; assay type: in vivo; conditions: 96.5% nitrogen, 3.5% oxygen, effective: at most 1-2 treated animals died when 7-8 untreated had died
Experimental: 2. Hypoxia Tolerance Test
In the method employed, mice which are untreated controls or which have been pretreated with the test substance (p.o.) are placed in respective sealed chambers which are filled with a gas mixture consisting of 96.5% nitrogen and 3.5% oxygen. The observer waits until 7-8 of the untreated animals have died. This occurs within 6-7 minutes. If the test substance is effective, at most 1-2 of the treated animals may have died.

[4] = Acute Toxicity (LD50); conditions: in vivo, po; mouse
Experimental: The acute toxicity of the test compounds was determined in the conventional manner, in the mouse.

[5] = target: muscarine-cholinergic receptor structures in the rat cortex; assay: Muscarine-Cholinergic Receptor Binding, cortex
Experimental: Also as described in Example 8, the compounds tested bound with high affinity to muscarine-cholinergic receptor structures in the rat cortex.
3. Muscarine-Cholinergic Receptor Binding
This test was performed according to the methods described by M. Watson et al., Life Sci., 32, 3001-3011 (1983) and R. Hammer et al., Nature, 283, 90=92 (1980). The IC50 values were calculated in the manner described by Y. C. Cheng et al., Biochemical Pharmacology, 22, 3099-3108 (1973).

[6] = printed across the Hippocampus and Cortex columns, ineffective up to the stated concentration, read-out: Muscarine Receptor Binding, IC50, Hippocampus and Cortex (ineffective up to)
[7] = Hippocampus, read-out: Muscarine Receptor Binding, IC50, Hippocampus

Compound: COc1ccc(C(=O)N2CCCC2=O)cc1 [Aniracetam, 1-(p-methoxybenzoyl)-pyrrolidin-2-one, reference compound]
Scopolamine-Induced Memory Disruption, % Inhibition ([1]; 30 mg/kg p.o.): 29.7%
Scopolamine-Induced Memory Disruption, % Inhibition ([1]; 50 mg/kg p.o.): 42.6%
Scopolamine-Induced Memory Disruption, % Inhibition ([1]; 100 mg/kg p.o.): 49.3%
IC50 [2, 6]: > 100 µM

Compound: O=C(NCC1CC(=O)N(Cc2ccccc2)C1)Nc1ccc(Cl)cc1 (centres unmarked) [Example 5, 4-(p-Chlorophenylamino-carbonylaminomethyl)-1-benzylpyrrolidin-2-one]
Scopolamine-Induced Memory Disruption, % Inhibition ([1]; 5 mg/kg p.o.): 50%
Scopolamine-Induced Memory Disruption, % Inhibition ([1]; 10 mg/kg p.o.): 70%
Hypoxia Tolerance ([3]; 100 mg/kg p.o.): effective
IC50 [2, 7]: 93 µM
LD50 at 336 h [4]: > 2000 mg/kg

Compound: CN1CCN(C(=O)NCC2CC(=O)N(Cc3ccccc3)C2)CC1 (centres unmarked) [Example 1, 4-(N-Methylpiperazinyl-carbonylaminomethyl)-1-benzylpyrrolidin-2-one]
Scopolamine-Induced Memory Disruption, % Inhibition ([1]; 10 mg/kg p.o.): 43%
LD50 at 336 h [4]: 1500 to 2000 mg/kg

Compound: NC(=O)CN1CCCC1=O [Piracetam, 1-carbomyl-methyl-pyrrolidin-2-one, reference compound]
Scopolamine-Induced Memory Disruption, % Inhibition ([1]; 100 mg/kg p.o.): 42.9%
Scopolamine-Induced Memory Disruption, % Inhibition ([1]; 200 mg/kg p.o.): 53.7%
Scopolamine-Induced Memory Disruption, % Inhibition ([1]; 500 mg/kg p.o.): 50.0%
Hypoxia Tolerance ([3]; 150 mg/kg p.o.): effective
IC50 [2, 6]: > 1000 µM

Now from value to compound, other results behind:

IC50 [2, 7]: > 100 µM
Compound: CNC(=O)NCC1CC(=O)N(Cc2ccccc2)C1 (centres unmarked) [Example 7]
Scopolamine-Induced Memory Disruption, % Inhibition ([1]; 100 mg/kg p.o.): 60%

IC50 [2, 7]: > 100 µM
Compound: CN1CCN(C(=O)N(C)CC2CC(=O)N(Cc3ccccc3)C2)CC1 (centres unmarked) [Example 17]
Scopolamine-Induced Memory Disruption, % Inhibition ([1]; 30 mg/kg p.o.): 45%

IC50 [5]: > 10 µM
IC50 [2, 7]: 26 µM
Compound: Cc1ccc(CN2CC(CNC(=O)N3CCN(C)CC3)CC2=O)cc1 (centres unmarked) [Example 13]
Scopolamine-Induced Memory Disruption, % Inhibition ([1]; 50 mg/kg p.o.): 50%
